# Source: patent US7417052B2, “Phenylene derivative having tetrazole ring or thiazolidinedione ring” (Sankyo Company, Limited, priority 2003, dated 2008)
# Key:
# [1] = tested on: pentosidine (AGEs) formation in serum of kidney failure patients; test: AGEs formation inhibitory effect (pentosidine production in serum protein, HPLC); type: biochemical, human; conditions: test compound final concentration 5 mM, incubated at 37° C. for one week, proportion to pentosidine production amount by control
# Method: AGEs Formation Inhibitory Effect
# A solution (50 μl) of the test compound (final concentration 5 mM) in dimethyl sulfoxide was added to a protein (450 μl, serum of kidney failure patients who gave informed consent), and the mixture was incubated at 37° C. for one week. Pentosidine, which is one of the AGEs produced, was measured as follows. To separate pentosidine produced in the protein, 10% trichloroacetic acid (50 μl) was added to the sample after the reaction (50 μl) and the mixture was centrifuged and the precipitated protein was recovered. The recovered protein was washed with 300 μl of 5% trichloroacetic acid, dried and hydrolyzed with 6N hydrochloric acid (100 μl) at 110° C. for 16 hrs. The amount (nmol/l) of pentosidine produced was measured by HPLC (ODS C18, 4.6×250 mm, 335 nm, 385 nm) using a fluorescence detector by the gradient of 30 min., 1.0 ml/min with 0.1% trifluoroacetic acid added distilled water/0.08% trifluoroacetic acid added 80% acetonitrile as a mobile phase (Miyata, T et al.: J. Am. Soc. Nephrol., 7, 1198-1206, 1996, and Miyata, T. et al.: Proc. Natl. Acad. Sci. USA, 93 2353-2358, 1996).
# To study AGEs formation inhibitory effect, the proportion of the aforementioned pentosidine production amount to the pentosidine production amount by control was calculated as pentosidine production rate (%).
SMILES,pentosidine production rate (%) [1] [%],melting point [°C]
"CCCc1nc2c(C)cc(C)nc2n1Cc1ccc(C2SC(=O)NC2=O)cc1 (stereo not shown) [Example 19, 5-[4-[(5,7-dimethyl-2-propylimidazo[4,5-b]pyridin-3-yl)methyl]phenyl]-1,3-thiazolidine-2,4-dione]",23.8,
"CCCC1Sc2ccc(C(=O)O)cc2N(Cc2ccc(-c3nnn[nH]3)cc2)C1=O (stereo not shown) [Example 17, 3-oxo-2-propyl-4-[[4-(1H-tetrazol-5-yl)phenyl]methyl]2-H-benzo[e]1,4-thiazine-6-carboxylic acid]",35.0,
"CCCCC(=O)N(Cc1ccc(-c2ccccc2-c2nnn[nH]2)cc1)c1cccc(C(=O)O)c1 [Example 1, 3-[N-[[4-[2-(1H-tetrazol-5-yl)phenyl]phenyl]methyl]-N-pentanoylamino]benzoic acid]",18.1,
"CCCCC(=O)N(Cc1ccc(-c2nnn[nH]2)cc1)c1cccc(C(=O)O)c1 [Example 7, 3-[N-[[4-(1H-tetrazol-5-yl)phenyl]methyl]-N-pentanoylamino]benzoic acid]",27.2,
"CCCC(=O)N(Cc1ccc(-c2ccccc2-c2nnn[nH]2)cc1)c1cccc(C(=O)O)c1 [Example 4, 3-[N-[[4-[2-(1H-tetrazol-5-yl)phenyl]phenyl]methyl]-N-butanoylamino]benzoic acid]",17.4,
"CCCCC(=O)N(Cc1ccc(-c2ccccc2-c2nnn[nH]2)cc1)c1ccc(C(=O)O)cc1 [Example 9, 4-[N-[[4-[2-(1H-tetrazol-5-yl)phenyl]phenyl]methyl]-N-pentanoylamino]benzoic acid]",30.8,
"CCCCC(=O)N(Cc1ccc(-c2ccccc2-c2nnn[nH]2)cc1)c1cccc(C(=O)OCc2oc(=O)oc2C)c1 [Example 6, (5-methyl-2-oxo-1,3-dioxolen-4-yl)methyl3-[N-[[4-[2-(1H-tetrazol-5-yl)phenyl]phenyl]methyl]-N-pentanoylamino]benzoate]",16.8,
"CC(=O)N(Cc1ccc(-c2ccccc2-c2nnn[nH]2)cc1)c1cccc(C(=O)O)c1 [Example 2, 3-[N-[[4-[2-(1H-tetrazol-5-yl)phenyl]phenyl]methyl]-N-acetylamino]benzoic acid]",26.1,
"CCCC1Sc2ccc(C(=O)O)cc2N(Cc2ccc(-c3ccccc3-c3nnn[nH]3)cc2)C1=O (stereo not shown) [Example 16, 3-oxo-2-propyl-4-[[4-[2-(1H-tetrazol-5-yl)phenyl]phenyl]methyl]-2H-benzo[e]1,4-thiazine-6-carboxylic acid]",25.8,
"O=C1CCc2ccccc2N1Cc1ccc(-c2ccccc2-c2nnn[nH]2)cc1 [Example 13, 1-[[4-[2-(1H-tetrazol-5-yl)phenyl]phenyl]methyl]-1,3,4-trihydroquinolin-2-one]",45.4,
"CCCC1Cc2ccc(C(=O)OCc3oc(=O)oc3C)cc2N(Cc2ccc(-c3ccccc3-c3nnn[nH]3)cc2)C1=O (stereo not shown) [Example 12, (5-methyl-2-oxo-1,3-dioxolen-4-yl)methyl2-oxo-3-propyl-1-[[4-[2-(1H-tetrazol-5-yl)phenyl]phenyl]methyl]-1,3,4-trihydroquinoline-7-carboxylate]",29.0,
"CCCCC(=O)N(Cc1ccc(C2SC(=O)NC2=O)cc1)c1cccc(C(=O)O)c1 (stereo not shown) [Example 22, 3-[N-[4-(2,4-dioxothiazolidin-5-yl)benzyl]-N-pentanoylamino]benzoic acid]",12.4,
"CCC(=O)N(Cc1ccc(-c2ccccc2-c2nnn[nH]2)cc1)c1cccc(C(=O)O)c1 [Example 3, 3-[N-[[4-[2-(1H-tetrazol-5-yl)phenyl]phenyl]methyl]-N-propanoylamino]benzoic acid]",21.3,
"CCc1nc2c(C)cc(C)nc2n1Cc1ccc(C2SC(=O)NC2=O)cc1 (stereo not shown) [Example 18, 5-[4-[(2-ethyl-5,7-dimethylimidazo[4,5-b]pyridin-3-yl)methyl]phenyl]-1,3-thiazolidine-2,4-dione]",18.0,221 to 222
"CCCC1Cc2ccc(C(=O)O)cc2N(Cc2ccc(-c3ccccc3-c3nnn[nH]3)cc2)C1=O (stereo not shown) [Example 10, 2-oxo-3-propyl-1-[[4-[2-(1H-tetrazol-5-yl)phenyl]phenyl]methyl]-1,3,4-trihydroquinoline-7-carboxylic acid]",18.0,
"CCCC1Oc2ccc(C(=O)O)cc2N(Cc2ccc(-c3nnn[nH]3)cc2)C1=O (stereo not shown) [Example 15, 3-oxo-2-propyl-4-[4-[4-(1H-tetrazol-5-yl)phenyl]methyl]2-H-benzo[e]1,4-oxazine-6-carboxylic acid]",23.8,
"CCCCCCCC(=O)N(Cc1ccc(-c2ccccc2-c2nnn[nH]2)cc1)c1cccc(C(=O)O)c1 [Example 5, 3-[N-[[4-[2-(1H-tetrazol-5-yl)phenyl]phenyl]methyl]-N-octanoylamino]benzoic acid]",9.33,
"CCCC1Cc2cc(C(=O)O)ccc2N(Cc2ccc(-c3ccccc3-c3nnn[nH]3)cc2)C1=O (stereo not shown) [Example 11, 2-oxo-3-propyl-1-[[4-[2-(1H-tetrazol-5-yl)phenyl]phenyl]methyl]-1,3,4-trihydroquinoline-6-carboxylic acid]",24.9,
"CCCC1Oc2ccc(C(=O)O)cc2N(Cc2ccc(-c3ccccc3-c3nnn[nH]3)cc2)C1=O (stereo not shown) [Example 14, 3-oxo-2-propyl-4-[[4-[2-(1H-tetrazol-5-yl)phenyl]phenyl]methyl]-2H-benzo[e]1,4-oxazine-6-carboxylic acid]",22.1,197 to 198
"CCCCC(=O)N(Cc1ccc(-c2ccccc2-c2nnn[nH]2)cc1)c1ccccc1C(=O)O [Example 8, 2-[N-[[4-[2-(1H-tetrazol-5-yl)phenyl]phenyl]methyl]-N-pentanoylamino]benzoic acid]",23.5,
